Results reported in patent US4758586A, “Indolyl compounds and hyposensitivity use thereof” (USV Pharmaceutical Corp., priority 1986, dated 1988).

How the values were obtained:
[1] = molecular target: cyclooxygenase; experiment: Production of TXB2 and PGF2 α in rat peritoneal leukocyte homogenate (cyclooxygenase); type: biochemical; settings: read-out: Cyclox, I50
Excerpt: Another assay has been developed to test the ability of the invented compounds on the activity of cyclooxygenase, which is one of the enzymes metabolizing arachidonic acids. By-products of arachidonic acid metabolism include thromboxanes, a type of which is designated as TXB2, and protoglandins, a class of which is known as PGF2 α. As indicated, supra, these by-products promote inflammatory response to a host of offending stimuli. The following protocol describes a procedure for testing the inhibitory effect on the production of TXB2 and PGF2 α.
Protocol for Detecting the Production of TXB2 and PGF2 α.
A suspension of glycogen elicited rat peritoneal leukocyte-homogenate in buffer is incubated with (^14 C)-arachidonic acid (AA), epinephrine and glutathione for 30 minutes at 37°. The reaction is quenched with 2M citric acid, and a trace amount of (^3 H)-TXB2 and an excess of unlabeled TXB2 and PGF2 α are added to each tube. […] Strips containing the spots are cut out, placed in scintillation vials and the radioactive content is quantitated in a liquid scintillation spectrometer.
After adjusting for the extraction efficiency, the amount (pmole) of (^14 C)-TXB2 and PGF2 α in each of the tubes is calculated. […] The ability of the test compounds to modulate the activity of this enzyme is determined by a decrease or increase in the net amount of TXB2 and PGF2 α produced.

[2] = molecular target: T1, 5-lipoxygenase (Rattus norvegicus, UniProt P12527); experiment: Protocol for detecting inhibitors of the lipoxygenase pathway (5-HETE formation in rat neutrophils); type: cell-based; settings: rat PMN, [14C]-arachidonic acid + A23187, 5-HETE; read-out: LOX, (RAT PMN) I50
T1 construct: A suspension of rat neutrophils in buffer; endogenous in cells; host or cells: rat neutrophils (PMN)
T1 sequence (P12527 1-673): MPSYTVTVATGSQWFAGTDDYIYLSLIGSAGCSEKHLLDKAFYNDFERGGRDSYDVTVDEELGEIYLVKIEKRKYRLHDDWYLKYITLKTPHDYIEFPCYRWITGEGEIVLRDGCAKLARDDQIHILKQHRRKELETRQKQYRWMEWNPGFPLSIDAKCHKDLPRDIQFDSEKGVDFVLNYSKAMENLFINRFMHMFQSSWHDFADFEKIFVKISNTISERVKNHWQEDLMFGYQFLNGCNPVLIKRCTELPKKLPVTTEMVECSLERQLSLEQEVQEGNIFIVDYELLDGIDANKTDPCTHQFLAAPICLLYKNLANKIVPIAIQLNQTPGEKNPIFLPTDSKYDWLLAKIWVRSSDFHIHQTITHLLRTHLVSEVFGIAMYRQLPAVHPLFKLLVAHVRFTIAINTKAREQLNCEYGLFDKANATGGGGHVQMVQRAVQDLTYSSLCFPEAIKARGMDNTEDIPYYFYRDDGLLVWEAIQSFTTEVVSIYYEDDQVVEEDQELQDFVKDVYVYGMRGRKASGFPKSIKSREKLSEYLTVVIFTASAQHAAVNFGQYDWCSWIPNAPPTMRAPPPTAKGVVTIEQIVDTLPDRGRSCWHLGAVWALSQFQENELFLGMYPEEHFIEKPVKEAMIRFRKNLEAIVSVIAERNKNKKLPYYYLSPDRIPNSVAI
Protocol: Protocol for Detecting Inhibitors of the Lipoxygenase Pathway
A suspension of rat neutrophils in buffer is incubated for 3 minutes at 30° C. with [^14 C]-arachidonic acid (AA) and Calcium Ionophore A23187. Citric acid (2M) is used to quench the reaction. Following the addition of a trace amount of (^3 H)-5-HETE together with an excess of unlabeled 5-HETE to each tube, the mixture is extracted with chloroform/methanol. The organic layer is washed with dilute acid and an aliquot is transferred to glass tubes and dried. The residue is dissolved in a small volume of chloroform and an aliquot is spotted on silica get TLC sheets, which are developed with an ethyl acetate/isooctane/water acetic acid solvent system. The 5-HETE spots are visualized with iodine, cut out and placed in scintillation vials for counting. After adjusting for the extraction efficiency, the amount (pmole) of [^14 C]-5-HETE in each of the tubes is quantitated. The net pmoles of 5-HETE are obtained by subtracting the pmoles of 5-HETE in the tubes containing […]. The ability of the test compounds to modulate the activity of this enzyme is determined by a decrease or increase in the net amount of 5-HETE produced.

[3] = molecular target: T2, Phospholipase A2 (PLA2) (Rattus norvegicus, UniProt P14423); experiment: In vitro assay for inhibitors of Phospholipase A2 (PLA2) from rat platelets; type: biochemical; settings: pH 7.2, 37° C.; read-out: PLA2, I50
T2 construct: obtained by aggregation of purified rat platelets; from tissue; host or cells: rat platelets (enzyme obtained by aggregation)
T2 sequence (P14423 22-146): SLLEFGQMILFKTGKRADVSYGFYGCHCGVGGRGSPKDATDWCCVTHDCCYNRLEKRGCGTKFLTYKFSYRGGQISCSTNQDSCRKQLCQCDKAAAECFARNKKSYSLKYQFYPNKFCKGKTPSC
Excerpt: B. In Vitro Assay For Inhibitors of Phospholipase A2 Assayed at pH 7.0 (PLA2)
The PLA2 employed in this screen is obtained by aggregation of purified rat platelets. In the enzyme assay phosphatidylcholine having ^14 C-labeled palmitate residues at R1 and R2 is employed as substrate. PLA2 acts by cleaving the R2 fatty acid ester bond yielding free fatty acid and lysophosphatidyl choline as follows: [drawing 19]
Following completion of the reaction, the assay medium is acidified and extracted with hexane, which takes up unreacted substrate and free fatty acid product. The hexane extract is passed over a short silica column which retains 99% of the phosphatidyl choline. The ^14 C-labeled palmitic acid is not retained (90% recovery in eluate) and is collected directly in scintillation counting vials. The released palmitic acid is conveniently quantitated by liquid scintillation spectrometry.
The compounds were tested at 100 uM in a buffer containing 0.3 mM unlabeled phosphatidylcholine (PC), 20-30,000 cpm of ^14 C(CPC), […], 1 mM CaCl2 and 50 mM tris-HCl adjusted to pH 7.2 with 1N NaOH. […] The temperature of the buffer was maintained at a temperature of 37° C. The reaction was initiated by addition of the enzyme and it was terminated 30 minutes later by the addition of […] of 1N HCl.
Following acidification, the samples were extracted with 2 ml of 2-propanol and 2 ml of hexane, vortexed and allowed to stand until the phases separated. Free fatty acids (FFA) and some unreacted substrate were taken up in the isopropanol-saturated hexane. The hexane phase of the extraction mixture was transferred to a short silica gel column which retained […] but not the FFA. The column effluent was collected directly in scintillation vials. The columns were washed once with an additional 2 ml of hexane. The radio labeled FFA were quantitated by liquid scintillation spectrometry.

`CCC(=CC=Cc1cn(Cc2ccccc2)c2ccccc12)C(=O)O` [Example 9, 5-(1-Benzylindol-3-yl)-2-Ethyl-2,4-Pentadienoic Acid] gave an IC50 [1] of 15 µM, an IC50 [2] of 2.3 µM and an IC50 [3] of 47 µM.
